Where “and” joins values, the source holds several entries; their conditions need not be identical. Equal values may be shown once.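 Method: 48-hour compound exposure of cells in 96-well plates, five concentrations, linear interpolation of endpoints. The concentration for 50% growth inhibition is given as GI50. The concentration for full growth arrest is given as TGI.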
Columns and labels:
Test in all cases: inhibition of tumour cell growth, NCI panel, 48 h
UO-31 renal = tested on: UO-31 renal
RXF 393 renal = tested on: RXF 393 renal
U251 CNS = tested on: U251 CNS
HCT-15 colon = tested on: HCT-15 colon
HOP-62 NSCLC = tested on: HOP-62 NSCLC
SK-MEL-28 melanoma = tested on: SK-MEL-28 melanoma
KM12 colon = tested on: KM12 colon
HCT-116 colon = tested on: HCT-116 colon
OVCAR-4 ovarian = tested on: OVCAR-4 ovarian
NCI-H23 lung = tested on: NCI-H23 lung

Row | Compound | TGI (UO-31 renal) | TGI (RXF 393 renal) | TGI (U251 CNS) | TGI (HCT-15 colon) [µM] | TGI (HOP-62 NSCLC) | TGI (SK-MEL-28 melanoma) [µM] | TGI (KM12 colon) | TGI (HCT-116 colon) [µM] | TGI (OVCAR-4 ovarian) | TGI (NCI-H23 lung) | GI50 (UO-31 renal) | GI50 (RXF 393 renal) | GI50 (NCI-H23 lung) | GI50 (U251 CNS) | GI50 (HCT-15 colon) [µM] | GI50 (HOP-62 NSCLC) [µM] | GI50 (KM12 colon) [µM] | GI50 (OVCAR-4 ovarian) | GI50 (SK-MEL-28 melanoma) [µM] | GI50 (HCT-116 colon) [µM]
1 | CC[O+]=c1cccc2ssnc1-2 | > 100 µM | > 100 µM | > 100 µM | > 100 | > 100 µM | > 100 | > 100 µM | > 100 | > 100 µM |  |  |  |  |  |  |  |  |  |  | 
2 | COc1ccc2c3c([nH]c2c1[N+](=O)[O-])C(C)N(C(=O)/C=C/c1ccccc1)CC3 (centres undefined) | > 100 µM | 24.1 µM | > 100 µM | > 100 | 70.4 µM | > 100 | > 100 µM |  | > 100 µM | > 100 µM |  |  |  |  |  |  |  |  |  | 
3 | CCCC(=O)C(CC)/C(CCC(=O)N(Cc1ccccc1)Cc1ccccc1)=N/NC(=O)C[N+](C)(C)C (centres undefined) | > 100 µM | > 100 µM | > 100 µM |  | > 100 µM | > 100 | > 100 µM | > 100 | > 100 µM | > 100 µM |  |  |  |  |  |  |  |  |  | 
4 | [O-]c1c(-c2ccccc2)[se]c(-c2ccccc2)[n+]1-c1ccccc1 | 9.84 µM | 8.45 µM |  | 31.2 |  | 22.7 | 23.1 µM | 11.4 | 5.95 µM | 29.7 µM |  |  |  |  |  |  |  |  |  | 
5 | O=c1c2ccccc2c(C=NCCNCCO)c2oc3ccccc3n12 | 22.5 µM | 22.6 µM | 19.5 µM | 23.9 | 25.6 µM |  | 22.1 µM |  | 36 µM | 33.6 µM | 9.58 µM | 4.96 µM | 19.5 µM | 6.24 µM | 10.1 | 13 | 10.4 | 16.6 µM |  | 
6 | COc1cc2c(C#N)n3c(c2cc1OC)C(=O)C(c1ccccc1)Oc1ccccc1-3 (centres undefined) |  | 19.5 µM | > 100 µM |  | > 100 µM | > 100 | > 100 µM | > 100 | > 100 µM | > 100 µM |  | 3.29 µM | 3.04 µM | 2.77 µM |  | 3.64 | 3.36 | 2.89 µM | > 100 | 3.23
7 | CP(=O)(CCSc1ccccc1)c1ccccc1 (centres undefined) | > 100 µM | > 100 µM | > 100 µM | > 100 | > 100 µM | > 100 |  | > 100 | > 100 µM | > 100 µM |  |  |  |  |  |  |  |  |  | 
8 | CCC(=O)[O-].CCC(=O)[O-].N.N.N.N.[Co+3].[O-][Cl+3]([O-])([O-])[O-] | > 100 µM |  | > 100 µM | > 100 | > 100 µM | > 100 | > 100 µM | > 100 | > 100 µM | > 100 µM | > 100 µM |  | > 100 µM | > 100 µM | > 100 | > 100 | > 100 | > 100 µM | > 100 | > 100
9 | CCN(CC)CCNc1ccc(CO)c2sc3ccccc3c(=O)c12 | 20.9 µM [middle of 4 runs] | 8.45 µM and 19 µM and 20.3 µM | 23.7 µM [middle of 4 runs] |  | 26 µM [middle of 4 runs] |  | 26 µM [middle of 4 runs] |  | 18.9 µM [middle of 4 runs] | 16.4 µM and 22.7 µM and 29.3 µM | 2.09 µM and 8.51 µM | 2.23 µM and 7.35 µM | 3.14 µM and 13.6 µM | 3.97 µM and 12.6 µM |  |  |  | 2.49 µM and 7.63 µM | 2.29 | 4.28
10 | CC(=O)[CH-]C(=O)c1ccccc1.CC(=O)[CH-]C(=O)c1ccccc1.[O-]c1ccc(O)cc1.[O-]c1ccc(O)cc1.[Ti+4] | 49.5 µM | 20.5 µM | 24 µM | 37.6 | 41.5 µM | 35.7 | 33 µM | 28.3 | 32.3 µM |  | 23.7 µM | 6.64 µM |  | 11.1 µM | 15.7 | 18.8 | 15.3 | 18.2 µM | 18.6 | 15.1
11 | c1ccc2c(c1)[Se]c1ccccc1[Se]2 | > 100 µM | > 100 µM | > 100 µM |  | > 100 µM | > 100 | > 100 µM | 72.4 | 67.1 µM | > 100 µM |  |  |  |  |  |  |  |  |  | 
12 | O=C(/C=C/c1ccccc1)c1ccc(O)c(CN2CCN(c3cc4c(cc3F)c(=O)c(C(=O)O)cn4C3CC3)CC2)c1 |  | 15.8 µM | > 100 µM | > 100 | > 100 µM | > 100 | 21 µM | > 100 | > 100 µM | 16.9 µM |  | 1.55 µM | 2.2 µM | 0.389 µM | 2.64 | 3.22 | 1.69 | 16.7 µM | 2.13 | 0.43
13 | NC(CCc1nc(-c2ccccc2)cs1)C(=O)O (centres undefined) | > 100 µM | > 100 µM | > 100 µM | > 100 |  | > 100 | > 100 µM | > 100 |  | > 100 µM |  |  |  |  |  |  |  |  |  | 
14 | COc1cccc(NC(=O)c2ccc(C(F)(F)F)nc2Nc2ccc(Cl)cc2C)c1 | 8.29 µM | 15.4 µM | 24.2 µM | 22.9 | 32.1 µM | 28.8 |  | 22.9 | 28.6 µM | 20 µM | 1.45 µM | 1.17 µM | 6.45 µM | 11.9 µM | 11 | 17.4 |  | 14.9 µM | 15 | 10.9
15 | COC(=O)c1c(C(=O)OC)c(C(=O)OC)c(C(=O)OC)c1C(=O)OC | > 100 µM | > 100 µM | > 100 µM | > 100 | > 100 µM | > 100 | > 100 µM |  | > 100 µM | > 100 µM |  |  |  |  |  |  |  |  |  | 
16 | CCC1N2CCCCC2[C@@H]2c3[nH]c4ccccc4c3CCN12 (some centres undefined) | > 100 µM | > 100 µM | > 100 µM | > 100 | > 100 µM | > 100 |  | > 100 | > 100 µM | > 100 µM |  |  |  |  |  |  |  |  |  | 
17 | NC(N)=NS(=O)(=O)c1ccc(NC(=O)c2ccc(Cl)c3c(Nc4ccc(S(=O)(=O)N=C(N)N)cc4)c4ccccc4nc23)cc1 | > 100 µM | > 100 µM | > 100 µM | > 100 | > 100 µM | > 100 | > 100 µM |  | > 100 µM | > 100 µM |  |  |  |  |  |  |  |  |  | 
18 | CC(=O)OC1CC(C)c2c1ncnc2N1CCN(C(=O)OC(C)(C)C)CC1 (centres undefined) | > 100 µM | > 100 µM |  | > 100 | > 100 µM | > 100 | > 100 µM | > 100 | > 100 µM | > 100 µM | > 100 µM | 31.9 µM | 58.9 µM |  | 55.3 | 45.4 | 38.1 | 63.6 µM | 72.9 | 38.1
